# Measured values published in patent US11484484B2, “Composition for alleviating skin barrier dysfunction” (LG HOUSEHOLD & HEALTH CARE LTD., priority 2018, dated 2022).
# “Also recorded” adds a separate entry of the source.
# Key:
# [1] = test system: reconstructed human epidermis model (Neoderm-E); assay: Epidermal thickness in 3D artificial skin model; format: cell-based; conditions: 1% cream formulation; for Increase relative to Control: epidermal thickness ratio
# Method: (§1) A reconstructed human epidermis model (Neoderm-E, Tego Science, Korea) was transferred to a 6-well plate and stabilized in 2 mL of a growth medium (Tego Science, Korea) for 24 hours, and the cream-type hydroxycinnamic acid, isoamyl acetate, and betaine were applied to the artificial skin at each concentration. After culturing for 24 hours, the hydroxycinnamic acid, isoamyl acetate, and betaine cream applied on the artificial skin were washed with phosphate buffer saline (PBS), and then the tissue was disrupted using a RIPA buffer (50 mM Tris-HCl, pH 7.4, 150 mM NaCl, 1% NP-40) containing Protease Inhibitor Cocktails (ThermoFisher Scientific, USA) by sonication. The tissue-extracted proteins were analyzed for the autophagic activity of keratinocytes in the tissue by western blotting analysis. 1% creams of hydroxycinnamic acid, isoamyl acetate, and betaine were applied on the artificial skin, followed by H&E staining after 1 week to confirm the increase in thickness of the epidermis.
# Next, the cream formulations of 1% betaine, 1% hydroxycinnamic acid, and 1% isoamyl acetate were applied to the artificial skin, and changes in the thickness of the epidermis were measured after […] staining of the artificial skin tissue.
# [2] = general description of the substance; cited from earlier work
# [3] = test system: reconstructed human epidermis model (Neoderm-E); assay: LC3-II production in 3D artificial skin model; format: cell-based; conditions: 1% cream formulation, after 24 hours
# Method: as §1
# In order to confirm whether the differentiation in the epidermis is promoted by the effect of promoting autophagy by way of betaine, hydroxycinnamic acid, and isoamyl acetate, a 3D artificial skin model was used as in Example 5. […] After 24 hours, the degree of LC3-II production was measured through western blotting analysis to determine whether autophagy in the epidermis was promoted.
# [4] = test system: HaCaT cells introduced with the GFP-LC3 vector; assay: Screening for autophagy activation: GFP-LC3 puncta quantification; format: cell-based, human; conditions: for proportion of cells with increased GFP-LC3 puncta vesicles: fluorescence microscopy
# Method: A GFP (green fluorescence protein)-conjugated microtubule-binding protein 1 light chain 3 (LC3) expression vector (Cell Biolabs, USA) was introduced into HaCaT cells using Lipofectamine 2000 (Invitrogen, USA), which is a gene transfer reagent, and the resultant was cultured for 12 hours in a condition containing 10% FBS and then treated with candidate compounds expected to promote autophagy, which was selected from a library of single compounds derived from natural substances, at each concentration in the medium. Subsequently, the evaluation was performed by fluorescence microscopy (Leica Microsystems, USA). In order to quantify the induction of autophagy, 100 GFP-positive cells in which puncta autophagosomes were formed (punctae=5) were counted using fluorescence microscopy. In order to improve the barrier function by promoting epidermal differentiation through the activation of autophagy, which is reduced due to aging or external stimuli, a search was conducted starting from a library of single compounds derived from natural substances for those that promote autophagic activity of keratinocytes. Specifically, as in the method of Example 3, candidate compounds expected to promote autophagy were treated to HaCaT cells introduced with the GFP-LC3 vector. Thereafter, the number of cells with increased GFP-LC3 puncta vesicles in the cytoplasm was increased as GFP was conjugated to LC3, which was converted into a membrane-bound form when autophagy was induced in each cell, was compared.
# [5] = test system: AKT-mTOR-S6 pathway; assay: Phosphorylation of AKT-mTOR-S6 pathway by western blotting; format: cell-based, human; conditions: HaCaT cells
# Excerpt: (§2) HaCaT cells were inoculated into a 60 mm plate at a concentration of 8×10^5 cells and independently treated with hydroxycinnamic acid, isoamyl acetate, and betaine the next day, and then the cells were eluted with a 5× lysis buffer to obtain proteins. Cell debris was removed by centrifugation and quantified using a BCA protein assay kit (Pierce, USA). The cell-extracted proteins were isolated using a 4%-15% SDS-PAGE gel (Bio-Rad, USA) and transferred to a nitrocellulose membrane (Life Technologies, New Zealand). The cells were then blocked with a TBST buffer containing 3% BSA for 1 hour and thereupon reacted in a buffer solution containing primary antibodies at 4° C. for 1 day. The membrane was washed with TBST, reacted with peroxidase-conjugated secondary antibodies, and then colored using enhanced chemiluminescence (Amersham, UK), and the immune-reactive bands were confirmed with the Fusion FX 5 image system (Vilber Lourmat, France).
# In previous studies, betaine—homocysteine methyltransferase (BHMT) has been reported to reduce the amount of homocysteine in a betaine-dependent manner. In one study, homocysteine was reported to promote the activity of mTORC1, an enzyme that inhibits autophagy. Thus, in order to find a mechanism by which autophagy is promoted by betaine, an experiment was conducted to identify related upstream signaling factors. […]
# [6] = test system: HaCaT cells; format: cell-based; conditions: 10 μg/mL, 50 μg/mL and 100 μg/mL
# [7] = test system: LC3-II; assay: LC3-II production by western blotting in keratinocytes; format: cell-based, human; conditions: HaCaT cells
# Excerpt: as §2
# The cytotoxicity of betaine on keratinocytes was confirmed, and the results of Experimental Example 1 were confirmed by the western blotting analysis of Example 4 to determine the degree of production of LC3-II converted as it entered into the double membranes of the autophagosomes. […] Additionally, the cells were treated with 50 μg/mL betaine and the amount of LC3-II conversion per hour was observed.
# [8] = test system: LC3-II, p62/SQSTM1; assay: Autophagosome synthesis mechanism: co-treatment with bafilomycin A1, LC3-II and p62 western blotting; format: cell-based, human
# Excerpt: as §2
# Therefore, in order to investigate a mechanism by which the autophagosomes are increased by way of betaine treatment, the cells were treated with bafilomycin A1 (Baf. A1), which is known as a lysosomal activity inhibitor, together with betaine, and the degree of LC3-II production was confirmed by western blotting analysis.
Structure (SMILES),Thickness of Epidermis [1] [μm],epidermal thickness increase compared to the control group [1] [%],Increase relative to Control [1],solubility [2],autophagy (degree of LC3-II production) in the epidermis [3],proportion of cells with increased GFP-LC3 puncta vesicles [4] [%],mTOR signals (degree of phosphorylation of the AKT-mTOR-S6 pathway) [5],cytotoxicity [6],"amount of LC3-II conversion, from 12 hours ([7]; 50 μg/mL, 12 hours)","amount of LC3-II conversion, after 24 hours ([7]; 50 μg/mL, 24 hours)","amount of LC3-II conversion, until 6 hours ([7]; 50 μg/mL, until 6 hours)","amount of LC3-II by concentration ([7]; 10, 50, 100 μg/mL, western blotting)","number of cells with increased GFP-LC3 puncta vesicles, increase compared to the untreated group [4] [%]","amount of p62/SQSTM1 (p62) protein ([8]; betaine treatment, western blotting)",amount of LC3-II with bafilomycin A1 together with betaine compared to betaine alone ([8]; co-treatment with lysosomal activity inhibitor bafilomycin A1)
CC(=O)OCCC(C)C [isoamyl acetate],85,37,1.37,"not well soluble in water, but soluble in alcohol and organic solvents",autophagy was increased,16.4,,,,,,,,,
"C[N+](C)(C)CC(=O)[O-] [betaine, trimethylglycine]",74,19,1.19,,autophagy was increased,25,not possible to observe a significant difference; also recorded: no significant difference,no cytotoxicity was observed,the amount of conversion increased,the highest conversion was observed; also recorded: conversion mostly occurred,a significant increase was not observed,increased as the concentration increased,18.75,reduced; also recorded: decrease,further increased
